Data on 18 molecules can be found in patent US20240043439A1, “COMPOUNDS AS C5AR INHIBITORS” (Kira Pharmaceuticals (Suzhou) Ltd., priority 2020, published 2024).

In experiment [1] the target is human C5a receptor (C5aR) (Homo sapiens (Human), UniProt P21730). As to the kind of experiment: Inhibition of C5a-C5aR binding (biotinylated human C5a, U937/C5aR cells, FACS). Put shortly: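 Binding read by flow cytometry as FITC-streptavidin signal (30 min on ice) on washed cells after a 120 min on-ice incubation of compound with biotinylated human C5a (30 nM working solution). Cells used were C5aR-transfected U937, suspended at 3×10^6 cells/ml in PBS containing 0.1% BSA.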
Chain of human C5a receptor (C5aR) (P21730 whole entry): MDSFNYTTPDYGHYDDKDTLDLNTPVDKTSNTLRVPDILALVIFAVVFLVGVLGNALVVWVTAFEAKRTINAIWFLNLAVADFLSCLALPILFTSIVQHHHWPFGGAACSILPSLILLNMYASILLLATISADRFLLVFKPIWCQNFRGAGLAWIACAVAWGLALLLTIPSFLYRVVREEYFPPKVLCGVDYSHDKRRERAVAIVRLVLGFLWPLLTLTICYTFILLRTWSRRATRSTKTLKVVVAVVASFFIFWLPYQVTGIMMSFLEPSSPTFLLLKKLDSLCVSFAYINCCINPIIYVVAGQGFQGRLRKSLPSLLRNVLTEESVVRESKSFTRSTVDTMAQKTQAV

In experiment [2] the target is T1, C5aR (Homo sapiens (Human), UniProt P21730). As to the kind of experiment: Inhibition of C5a-C5aR binding determined by cell migration assay (U937/C5aR cells). Format: cell-based. Particulars: U937/C5aR cell migration towards human C5a, 180 min. The procedure: Migration assay was performed by using polycarbonate membrane with 3.0 µm pore (Corning). U937/C5aR cells were collected and washed twice by PBS; cells were suspended in Hank's balanced salt solution (HBSS)+1% FBS buffer at the density of 6×10^6 cells/ml. Cells were premixed with compound and added to insert well, ligand human C5a and compound were added to bottom well in order, gently mix, incubate for 30 min at 37° C., […]. Put insert plate into bottom well, migrate for 180 min at 37° C., […]. Gently remove the insert well, add 50 μl CellTiter-Glo (Promega), gently shaking for 5 min at room temperature, transfer 150 μl mixture to black plate and read luminescence intensity by
T1 sequence (P21730 whole entry): as above
microplate reader (BioTek).

For experiment [3], the target named is T1, C5aR. As to the kind of experiment: Calcium mobilization (U937/C5aR or HEK293/C5aR cells, FLIPR). The format is cell-based. Particulars: agonist human C5a at EC80, FLIPR. Summed up: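 FLIPR calcium-flux read-out using Fluo-4 Direct-loaded C5aR-expressing U937 or HEK293 cells stimulated with human C5a at its EC80. Compound was applied for 60 min before dye loading (50 min at 37 °C plus 10 min at room temperature) and agonist addition.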

In general, IC50 refers to the concentration needed to halve the response being measured.

Consider `Cc1ccc(NC(=O)C2C[C@@H]3CCC[C@@H]3N(C(=O)c3cocn3)C2c2ccc(NC3CCCC3)cc2)cc1C(F)(F)F` (relative stereo) [Compound 110, cis-2-(4-(cyclopentylamino)phenyl)-N-(4-methyl-3-(trifluoromethyl)phenyl)-1-(oxazole-4-carbonyl)octahydro-1H-cyclopenta[b]pyridine-3-carboxamide], for which the figures for the concentration for half-maximal inhibition (IC50) (in experiment [1]; on C5aR [2]; on C5aR [3]) were 50 to 500 nM, 50 to 500 nM and over 10000 nM, respectively.
On to `Cc1ccc(NC(=O)C2C[C@H]3CCC[C@H]3N(C(=O)C3CCOCC3)[C@H]2c2ccc(NC3CCCC3)cc2)cc1C(F)(F)F` (relative stereo) [Compound 111, cis-2-(4-(cyclopentylamino)phenyl)-N-(4-methyl-3-(trifluoromethyl)phenyl)-1-(tetrahydro-2H-pyran-4-carbonyl)octahydro-1H-cyclopenta[b]pyridine-3-carboxamide], for which the values for the IC50 (in experiment [1]; on C5aR [2]; at C5aR [3]) were 50 to 500 nM, 50 to 500 nM and 2000 to 10000 nM, respectively.
As for `Cc1ccc(NC(=O)C2C[C@H]3CCC[C@H]3N(C(=O)c3cscn3)C2c2ccc(NC3CCCC3)cc2)cc1C(F)(F)F` (relative stereo) [Compound 114, cis-2-(4-(cyclopentylamino)phenyl)-N-(4-methyl-3-(trifluoromethyl)phenyl)-1-(thiazole-4-carbonyl)octahydro-1H-cyclopenta[b]pyridine-3-carboxamide], the IC50 is under 50 nM in experiment [1], 50 to 500 nM at C5aR [2] and over 10000 nM on C5aR [3].
In the same order, the values of `Cc1ccc(NC(=O)C2C[C@H]3CCC[C@H]3N(C(=O)c3cncnc3)C2c2ccc(NC3CCCC3)cc2)cc1C(F)(F)F` (relative stereo) [Compound 115, cis-2-(4-(cyclopentylamino)phenyl)-N-(4-methyl-3-(trifluoromethyl)phenyl)-1-(pyrimidine-5-carbonyl)octahydro-1H-cyclopenta[b]pyridine-3-carboxamide] are 50 to 500 nM, 50 to 500 nM and over 10000 nM.
As for `Cc1ccc(NC(=O)C2C[C@@H]3COC[C@@H]3N(C(=O)c3c(C)cccc3F)C2c2ccc(NC3CCCC3)cc2)cc1C(F)(F)F` (relative stereo) [Compound 118, cis-2-(4-(cyclopentylamino)phenyl)-1-(2-fluoro-6-methylbenzoyl)-N-(4-methyl-3-(trifluoromethyl)phenyl)octahydrofuro[3,4-b]pyridine-3-carboxamide], the 50% inhibitory concentration (IC50) was under 50 nM in experiment [1], under 50 nM on C5aR [2] and 50 to 500 nM at C5aR [3].
`Cc1cccc(F)c1C(=O)N1C(c2ccc(NC3CCCC3)cc2)C(C(=O)Nc2ccc3c(cnn3C)c2)C[C@@H]2COC[C@@H]21` (relative stereo) [Compound 121, cis-2-(4-(cyclopentylamino)phenyl)-1-(2-fluoro-6-methylbenzoyl)-N-(1-methyl-1H-indazol-5-yl)octahydrofuro[3,4-b]pyridine-3-carboxamide]: the IC50 (in experiment [1]; on C5aR [2]; on C5aR [3]) was 50 to 500 nM in each case.
Consider `Cc1ccc(NC(=O)C2C[C@@H]3COC[C@@H]3N(C(=O)c3c(C)cccc3F)C2c2ccc(CN3CCOCC3(C)C)cc2)cc1C(F)(F)F` (relative stereo) [Compound 141, cis-2-(4-((3,3-dimethylmorpholino)methyl)phenyl)-1-(2-fluoro-6-methylbenzoyl)-N-(4-methyl-3-(trifluoromethyl)phenyl)octahydrofuro[3,4-b]pyridine-3-carboxamide], for which the IC50 lay within 50 to 500 nM in experiment [1], 500 to 2000 nM on C5aR [2] and 2000 to 10000 nM at C5aR [3].
The like results for `Cc1cccc(F)c1C(=O)N1C(c2ccc(NC3CCCC3)cc2)C(C(=O)Nc2ccc3c(cnn3C)c2)C[C@@H]2CCC[C@@H]21` (relative stereo) [Compound 147, cis-2-(4-(cyclopentylamino)phenyl)-1-(2-fluoro-6-methylbenzoyl)-N-(1-methyl-1H-indazol-5-yl)octahydro-1H-cyclopenta[b]pyridine-3-carboxamide] were, in that order, under 50 nM, 50 to 500 nM and 50 to 500 nM.
In the same order, the values of `Cc1cccc(F)c1C(=O)N1C(c2ccc(NC3CCOCC3)cc2)C(C(=O)Nc2ccc3c(cnn3C)c2)C[C@@H]2CCC[C@@H]21` (relative stereo) [Compound 158, cis-1-(2-fluoro-6-methylbenzoyl)-N-(1-methyl-1H-indazol-5-yl)-2-(4-((tetrahydro-2H-pyran-4-yl)amino)phenyl)octahydro-1H-cyclopenta[b]pyridine-3-carboxamide] are under 50 nM, under 50 nM and 50 to 500 nM.
`Cc1ccc(NC(=O)[C@H]2OCCN(C(=O)c3c(C)cccc3F)[C@H]2c2ccc(NC3CCCC3)cc2)cc1C(F)(F)F` (relative stereo) [Compound 187, cis-3-(4-(cyclopentylamino)phenyl)-4-(2-fluoro-6-methylbenzoyl)-N-(4-methyl-3-(trifluoromethyl)phenyl)morpholine-2-carboxamide]: the figures for the half-maximal inhibitory concentration (IC50) (in experiment [1]; on C5aR [2]; on C5aR [3]) were 50 to 500 nM, 50 to 500 nM and 2000 to 10000 nM, respectively.
For the molecule `Cc1cccc(F)c1C(=O)N1C(c2ccc(NC3CCCC3)cc2)C(C(=O)Nc2cnc3cnn(C)c3c2)C[C@@H]2COC[C@@H]21` (relative stereo) [Compound 189, cis-2-(4-(cyclopentylamino)phenyl)-1-(2-fluoro-6-methylbenzoyl)-N-(1-methyl-1H-pyrazolo[4,3-b]pyridin-6-yl)octahydrofuro[3,4-b]pyridine-3-carboxamide], the half-maximal inhibitory concentration (IC50) in experiment [1] was in the range of 50 to 500 nM; on C5aR [2], 50 to 500 nM; at C5aR [3] it was 2000 to 10000 nM.
For the molecule `Cc1ccc(NC(=O)[C@H]2CCCN(c3ncnc4ccccc34)[C@H]2c2ccc(NC3CCCC3)cc2)cc1C(F)(F)F` [Compound 5, (2R,3S)-2-(4-(cyclopentylamino)phenyl)-N-(4-methyl-3-(trifluoromethyl)phenyl)-1-(quinazolin-4-yl)piperidine-3-carboxamide], the IC50 in experiment [1] was 50 to 500 nM; on C5aR [2], 50 to 500 nM; on C5aR [3], 2000 to 10000 nM.
For `Cc1ccc(NC(=O)[C@H]2CCC3CCc4ccccc4C(=O)N3[C@H]2c2ccc(NC3CCCC3)cc2)cc1C(F)(F)F` (stereo partly drawn) [Compound 44, (3S,4R)-4-(4-(cyclopentylamino)phenyl)-N-(4-methyl-3-(trifluoromethyl)phenyl)-6-oxo-1,2,3,4,6,11,12,12a-octahydrobenzo[e]pyrido[1,2-a]azepine-3-carboxamide], the IC50 is 50 to 500 nM in experiment [1], under 50 nM at C5aR [2] and 500 to 2000 nM at C5aR [3].
The like results for `Cc1cccc(F)c1C(=O)N1[C@@H]2CCC[C@@H]2C[C@H](C(=O)Nc2ccc(N(C)C)cc2)[C@@H]1c1ccc(NC2CCCC2)cc1` [Compound 51, (2R,3S,4aR,7aR)-2-(4-(cyclopentylamino)phenyl)-N-(4-(dimethylamino)phenyl)-1-(2-fluoro-6-methylbenzoyl)octahydro-1H-cyclopenta[b]pyridine-3-carboxamide] were, in that order, under 50 nM, under 50 nM and 500 to 2000 nM.
The like results for `Cc1cccc(F)c1C(=O)N1[C@@H]2CCC[C@@H]2C[C@H](C(=O)Nc2cnn(C)c2)[C@@H]1c1ccc(NC2CCCC2)cc1` [Compound 54, (2R,3S,4aR,7aR)-2-(4-(cyclopentylamino)phenyl)-1-(2-fluoro-6-methylbenzoyl)-N-(1-methyl-1H-pyrazol-4-yl)octahydro-1H-cyclopenta[b]pyridine-3-carboxamide] were, in that order, 50 to 500 nM, 50 to 500 nM and 2000 to 10000 nM.
The like results for `Cc1cccc(F)c1C(=O)N1[C@@H]2CCC[C@@H]2C[C@H](C(=O)Nc2ccc(N(C)C)cc2)[C@@H]1c1ccc(NC2CCOCC2)cc1` [Compound 94, (2R,3S,4aR,7aR)-N-(4-(dimethylamino)phenyl)-1-(2-fluoro-6-methylbenzoyl)-2-(4-((tetrahydro-2H-pyran-4-yl)amino)phenyl)octahydro-1H-cyclopenta[b]pyridine-3-carboxamide] were, in that order, under 50 nM, 50 to 500 nM and 2000 to 10000 nM.
On to `Cc1cccc(F)c1C(=O)N1[C@@H]2CCC[C@@H]2C[C@H](C(=O)Nc2ccc3[nH]ncc3c2)[C@@H]1c1ccc(NC2CCOCC2)cc1` [Compound 96, (2R,3S,4aR,7aR)-1-(2-fluoro-6-methylbenzoyl)-N-(1H-indazol-5-yl)-2-(4-((tetrahydro-2H-pyran-4-yl)amino)phenyl)octahydro-1H-cyclopenta[b]pyridine-3-carboxamide], for which the IC50 in experiment [1] was under 50 nM; on C5aR [2], 50 to 500 nM; on C5aR [3] it was 2000 to 10000 nM.
The like results for `Cc1cccc(F)c1C(=O)N1[C@@H]2CCC[C@@H]2C[C@H](C(=O)Nc2ccc3c(ccn3C)c2)[C@@H]1c1ccc(NC2CCOCC2)cc1` [Compound 98, (2R,3S,4aR,7aR)-1-(2-fluoro-6-methylbenzoyl)-N-(1-methyl-1H-indol-5-yl)-2-(4-((tetrahydro-2H-pyran-4-yl)amino)phenyl)octahydro-1H-cyclopenta[b]pyridine-3-carboxamide] were, in that order, under 50 nM, under 50 nM and 500 to 2000 nM.
